Experimental data: patent publication US20140330170A1, “Method of Quantifying Cancer Treatment” (Exelixis, Inc., priority 2012, published 2014)

System: metastatic CRPC patients with bone metastases
Test: Adaptive phase 2 trial (NCT00940225): case studies of the first three CRPC patients with bone metastases treated with compound 1
Type: in vivo, human
Description: All patients provided informed consent before study screening.

[1] = Patient 1, best response, 100 mg dose
[2] = Patient 2, best response, 100 mg dose
[3] = Patient 3, best response, 100 mg dose
[4] = three metastatic CRPC patients, summary

COc1cc2nccc(Oc3ccc(NC(=O)C4(C(=O)Nc5ccc(F)cc5)CC4)cc3)c2cc1OC [Compound 1, N-(4-{[6,7-bis(methyloxy)quinolin-4-yl]oxy}phenyl)-N′-(4-fluorophenyl)cyclopropane-1,1-dicarboxamide]
PSA (Patient 1, best response, change from baseline 430.4 ng/mL): −78% | Hemoglobin (Patient 1, best response, change from baseline 13.5 g/dL): +1.4 g/dL | tALP (Patient 1, best response, change from baseline 689 U/L): −77% | Pain [1]: Improvement | Tumor response [1]: −41% | PSA (Patient 2, best response, change from baseline 14.7 ng/mL): +61% | Hemoglobin (Patient 2, best response, change from baseline 13.3 g/dL): +1.8 g/dL | tALP (Patient 2, best response, change from baseline 108 U/L): −6% | Bone scan [2]: Improvement | Pain [2]: Pain-free | Tumor response [2]: −20% | PSA (Patient 3, best response, change from baseline 2.8 ng/mL): −57% | Hemoglobin (Patient 3, best response, change from baseline 10.2 g/dL): +2.2 g/dL | tALP (Patient 3, best response, change from baseline 869 U/L): −77% | Pain [3]: Pain-free | Tumor response [3]: −51% | soft tissue lesions (all three patients, during therapy, summary): evidence of response or stabilization in soft tissue lesions | bone pain (all three patients, summary): substantial reductions in bone pain | uptake of radiotracer on bone scan (all three patients, summary): striking decrease in uptake of radiotracer on bone scan | bone lesions [4]: near complete resolution of bone lesions | bone pain and total serum alkaline phosphatase (tALP) levels [4]: marked reduction in bone pain and total serum alkaline phosphatase (tALP) levels | measurable disease [4]: reduction in measurable disease
